Reference: the supplement of paper PMC11579375

Experiments:
Assay in all cases: area under the viability dose-response curve (AUC) (AUC (arbitrary units, max 500 = no viability loss)); higher = less sensitive (higher viability)
Conditions in all cases: exposure time: 120 h; concentration range: 0.1 nM - 10 µM, 6 doses
[1] = test system: 10F2 (fetal-II hepatoblastoma organoid with high liver markers)
Description: (§1)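 Patient-derived hepatoblastoma tumor organoids (about 50 organoids per well, 384-well plates, medium with 5% BME) were treated with the PMC pediatric cancer drug library. Each drug was tested in duplicate at 6 concentrations (0.1 nM to 10 µM, 10-fold steps).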

[2] = test system: 135F2 (fetal-II hepatoblastoma organoid with high liver markers)
Description: as §1

[3] = test system: 13E (embryonal-type hepatoblastoma organoid)
Description: as §1

[4] = test system: 13F2 (fetal-II hepatoblastoma organoid with high liver markers)
Description: as §1

[5] = test system: 17E (embryonal-type hepatoblastoma organoid)
Description: as §1

[6] = test system: 17F1 (fetal-I hepatoblastoma organoid with intermediate liver markers)
Description: as §1

[7] = test system: 22E (embryonal-type hepatoblastoma organoid)
Description: as §1

[8] = test system: 27F1 (fetal-I hepatoblastoma organoid with intermediate liver markers)
Description: as §1

[9] = test system: 3E (embryonal-type hepatoblastoma organoid)
Description: as §1

[10] = test system: 8F1 (fetal-I hepatoblastoma organoid with intermediate liver markers)
Description: as §1

[11] = test system: 96F1 (fetal-I hepatoblastoma organoid with intermediate liver markers)
Description: as §1

Row | SMILES | area under the viability dose-response curve [1] | area under the viability dose-response curve [2] | area under the viability dose-response curve [3] | area under the viability dose-response curve [4] | area under the viability dose-response curve [5] | area under the viability dose-response curve [6] | area under the viability dose-response curve [7] | area under the viability dose-response curve [8] | area under the viability dose-response curve [9] | area under the viability dose-response curve [10] | area under the viability dose-response curve [11]
1 | CN(C)/N=N/c1[nH]cnc1C(N)=O [Dacarbazine] | > 500 | 496 | > 500 | 487 | > 500 | 486 | > 500 | 494 | > 500 | > 500 | 491
2 | COc1cccc(OCCCN)c1-c1cc(Nc2cnc(C#N)cn2)n[nH]1 [Prexasertib] | 293 | 324 | 313 | 345 | 274 | 371 | 345 | 264 | 172 | 334 | 320
3 | Cn1cnc2c(F)c(Nc3ccc(Br)cc3F)c(C(=O)NOCCO)cc21 [Binimetinib] | 343 | 396 | 490 | 379 | 424 | 458 | 489 | 499 | > 500 | > 500 | 481
4 | CN(C)C(=N)NC(=N)N [Metformin] | 469 | > 500 | > 500 | > 500 | > 500 | 482 | > 500 |  |  |  | > 500
5 | CC(C)c1c(-c2ccccc2)nc2c(C#N)c[nH]n2c1=O [CPI-455] | 469 | > 500 | > 500 | > 500 | > 500 | 498 | > 500 | > 500 | > 500 | > 500 | > 500
6 | CC[C@@]1(O)C(=O)OCc2c1cc1n(c2=O)Cc2cc3c(CN(C)C)c(O)ccc3nc2-1 [Topotecan] | 311 | 291 | 328 | 239 | 269 | 319 | 416 | 348 | 257 | 372 | 284
7 | C[C@]1(O)C[C@@H](c2nc(-c3ccc4ccc(-c5ccccc5)nc4c3)c3c(N)nccn32)C1 [Linsitinib] | 467 | 487 | 405 | 410 | 384 | 492 | 391 | 476 | 374 | 484 | 454
8 | CC(C)c1cc(-c2n[nH]c(=O)n2-c2ccc3c(ccn3C)c2)c(O)cc1O [Ganetespib] | 236 | 340 | 269 | 243 | 232 | 343 | 345 | 278 | 265 | 265 | 358
9 | C[C@@H]1CN(CC(=O)Nc2ccc3c(c2)Cc2cccc(-c4cc(=O)cc(N5CCOCC5)o4)c2S3)C[C@H](C)O1 | 430 | 470 | 493 | 484 | 457 | > 500 | 461 | 456 | > 500 | > 500 | 480
10 | c1cn2cc(-c3ccc4cn[nH]c4c3)nc(Nc3ccc(N4CCOCC4)cc3)c2n1 [Entospletinib] | 462 | 481 | 486 | > 500 | > 500 | 480 | 496 | 490 | 473 | 480 | 480
11 | COc1cc(Nc2c(C#N)cnc3cc(OCCCN4CCN(C)CC4)c(OC)cc23)c(Cl)cc1Cl [Bosutinib] | 429 | 459 | 447 | 397 | 429 | 469 | 471 | 422 | 435 | 450 | 433
12 | COc1cc2nccc(Oc3ccc(NC(=O)NC4CC4)c(Cl)c3)c2cc1C(N)=O [Lenvatinib] | 419 | 469 | 468 | 445 | 434 | > 500 | 472 | 445 | 475 | 461 | 474
13 | CC(C)(C)c1nc(-c2cccc(NS(=O)(=O)c3c(F)cccc3F)c2F)c(-c2ccnc(N)n2)s1 [Dabrafenib] | 422 | 471 | 497 | 411 | 494 | > 500 | 486 | 497 | 491 | > 500 | 456
14 | Cc1cn(-c2cc(NC(=O)c3ccc(C)c(Nc4nccc(-c5cccnc5)n4)c3)cc(C(F)(F)F)c2)cn1 [Nilotinib] | > 500 | 476 | 493 | 471 | 456 | 496 | 478 | > 500 | 489 | 486 | 495
15 | CC1(C)CCC2(CC1)N[C@@H](C(=O)N[C@@H]1CC[C@@H](C(N)=O)OC1)[C@H](c1ccnc(Cl)c1F)[C@]21C(=O)Nc2cc(Cl)ccc21 [Milademetan] | 268 | 341 | 370 | 256 | 294 | 376 | 406 | 357 | 313 | 367 | 399
16 | Cc1ccc(NC(=O)c2ccc(CN3CCN(C)CC3)cc2)cc1Nc1nc(-c2cccnc2)cs1 [Masitinib] | 497 | 473 | 489 | 489 | 462 | > 500 | 474 | > 500 | 483 | > 500 | 484
